Biological target: T1, CK2α (Zea mays) (Zea mays, UniProt P28523)
T1 construct: gene ACK2; catalytic subunit CK2α alone
Experiment: radiometric peptide phosphorylation assay, residual activity at […]
Type: biochemical

T1 sequence (P28523 whole entry): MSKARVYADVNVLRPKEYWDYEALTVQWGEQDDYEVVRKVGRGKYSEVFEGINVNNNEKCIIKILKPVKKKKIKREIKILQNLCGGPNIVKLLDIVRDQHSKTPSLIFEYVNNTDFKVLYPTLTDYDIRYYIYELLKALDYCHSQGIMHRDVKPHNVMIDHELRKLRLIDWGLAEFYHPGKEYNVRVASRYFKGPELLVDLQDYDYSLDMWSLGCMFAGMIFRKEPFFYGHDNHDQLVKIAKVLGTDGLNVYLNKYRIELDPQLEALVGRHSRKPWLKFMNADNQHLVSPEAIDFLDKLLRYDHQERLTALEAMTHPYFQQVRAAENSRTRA

SMILES: O=C1c2ccc(O)c(O)c2C(=O)c2c(O)ccc(O)c21 [quinalizarin, 1,2,5,8-tetrahydroxyanthraquinone]
- activity at 1 µM: 33%

Reference: PMC4628998 (BioMed Research International, 2015)
